These are literature values, as cited in patent US20090131395A1, “BIPHENYLAZETIDINONE CHOLESTEROL ABSORPTION INHIBITORS” (MICROBIA, INC., priority 2005, published 2009).

The data set addresses T1, ileal Na+/bile acid cotransporter (Homo sapiens, UniProt Q12908).
T1 sequence (Q12908 1-348): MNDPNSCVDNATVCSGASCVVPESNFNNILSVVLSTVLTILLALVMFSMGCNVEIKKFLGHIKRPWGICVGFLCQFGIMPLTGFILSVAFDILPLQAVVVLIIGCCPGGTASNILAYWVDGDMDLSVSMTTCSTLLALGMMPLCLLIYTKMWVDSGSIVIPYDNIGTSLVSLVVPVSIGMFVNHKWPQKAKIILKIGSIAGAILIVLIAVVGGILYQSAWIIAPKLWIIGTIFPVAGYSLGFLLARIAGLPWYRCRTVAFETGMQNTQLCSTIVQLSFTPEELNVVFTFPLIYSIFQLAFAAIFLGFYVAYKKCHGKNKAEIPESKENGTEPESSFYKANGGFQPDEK
The note with it: in vivo.

On to `O=C1[C@H](CC[C@H](O)c2ccc(F)cc2)[C@@H](c2ccc(O)cc2)N1c1ccc(F)cc1` [ezetimibe, (3R,4S)-1-(4-fluorophenyl)-3-[(3S)-3-(4-fluorophenyl)-3-hydroxypropyl]-4-(4-hydroxyphenyl)azetidin-2-one], for which the “inhibition of the absorption of taurocholic acid” value is listed as “does not inhibit the absorption of taurocholic acid”.
